Measurements published in ChEMBL document CHEMBL3734732, “Pyrrole- and indole-containing tranylcypromine derivatives as novel lysine-specific demethylase 1 inhibitors active on cancer cells” (Medchemcomm, 2015).

Columns and labels:
LSD1/CoREST complex = LSD1/CoREST complex (Homo sapiens, UniProt O60341); assay: Inhibition of human recombinant LSD1/CoREST protein expressed in Escherichia coli using monomethylated H3-K4 peptide (21 amino acids) as substrate preincubated for 15 mins followed by substrate addition measured for 12 mins by HRP-coupled Ultrared detection system-based fluorescence analysis
[1] = biological target: Lysine-specific histone demethylase 1A (Homo sapiens) (UniProt O60341); assay: Inhibition of LSD1 in human NB4 cells assessed as induction of ITGAM mRNA expression at IC50 after 24 hrs by quantitative RT-PCR analysis relative to vehicle-treated control; assay type: cell-based; conditions: NB-4
[2] = biological target: LSD1/CoREST complex (Homo sapiens) (UniProt O60341+Q9UKL0); assay: Potency index, ratio of trans-benzyl 1-(4-(2-aminocyclopropyl)phenylamino)-1-oxo-3-phenylpropan-2-ylcarbamate hydrochloride IC50 to compound IC50 for human recombinant LSD1/CoREST protein expressed in Escherichia coli
[3] = biological target: Lysine-specific histone demethylase 1A (Homo sapiens) (UniProt O60341); assay: Inhibition of LSD1 in human NB4 cells assessed as induction of GFI-1b mRNA expression at IC50 after 24 hrs by quantitative RT-PCR analysis relative to vehicle-treated control; assay type: cell-based; conditions: NB-4
[4] = Cytotoxicity against human NB4 cells assessed as growth inhibition after 72 hrs by CellTiter-Fluor Cell Viability assay; assay type: functional, cell-based; conditions: NB-4, 72 h
MV4-11 [5] = assay: Cytotoxicity against human MV4-11 cells assessed as growth inhibition after 72 hrs by CellTiter-Fluor Cell Viability assay; assay type: functional, cell-based; conditions: MV4-11, 72 h
[6] = biological target: T1, Amine oxidase [flavin-containing] A (Homo sapiens, UniProt P21397); assay: Inhibition of human recombinant MAO A expressed in Pichia pastoris using kynuramine as substrate preincubated for 15 mins followed by substrate addition by horseradish peroxidase coupled-spectrofluorimetric assay
T1 sequence (P21397 whole entry): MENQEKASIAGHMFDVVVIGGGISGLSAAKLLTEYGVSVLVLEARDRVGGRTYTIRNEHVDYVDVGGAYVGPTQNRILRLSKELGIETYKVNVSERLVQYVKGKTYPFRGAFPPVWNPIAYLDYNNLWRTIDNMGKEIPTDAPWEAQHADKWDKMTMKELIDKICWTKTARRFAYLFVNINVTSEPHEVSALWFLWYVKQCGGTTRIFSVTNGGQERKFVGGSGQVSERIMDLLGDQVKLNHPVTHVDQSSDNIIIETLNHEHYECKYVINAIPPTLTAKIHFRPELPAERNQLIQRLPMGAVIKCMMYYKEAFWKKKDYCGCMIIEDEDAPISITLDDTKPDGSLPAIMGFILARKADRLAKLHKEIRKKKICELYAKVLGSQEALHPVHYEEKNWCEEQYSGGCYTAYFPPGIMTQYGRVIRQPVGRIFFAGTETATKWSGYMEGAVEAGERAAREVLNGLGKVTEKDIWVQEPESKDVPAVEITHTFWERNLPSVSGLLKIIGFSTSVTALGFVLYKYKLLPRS

[7] = biological target: T2, Amine oxidase [flavin-containing] B (Homo sapiens, UniProt P27338); assay: Inhibition of human recombinant MAO B expressed in Pichia pastoris using benzylamine as substrate preincubated for 15 mins followed by substrate addition by horseradish peroxidase coupled-spectrofluorimetric assay
T2 sequence (P27338 whole entry): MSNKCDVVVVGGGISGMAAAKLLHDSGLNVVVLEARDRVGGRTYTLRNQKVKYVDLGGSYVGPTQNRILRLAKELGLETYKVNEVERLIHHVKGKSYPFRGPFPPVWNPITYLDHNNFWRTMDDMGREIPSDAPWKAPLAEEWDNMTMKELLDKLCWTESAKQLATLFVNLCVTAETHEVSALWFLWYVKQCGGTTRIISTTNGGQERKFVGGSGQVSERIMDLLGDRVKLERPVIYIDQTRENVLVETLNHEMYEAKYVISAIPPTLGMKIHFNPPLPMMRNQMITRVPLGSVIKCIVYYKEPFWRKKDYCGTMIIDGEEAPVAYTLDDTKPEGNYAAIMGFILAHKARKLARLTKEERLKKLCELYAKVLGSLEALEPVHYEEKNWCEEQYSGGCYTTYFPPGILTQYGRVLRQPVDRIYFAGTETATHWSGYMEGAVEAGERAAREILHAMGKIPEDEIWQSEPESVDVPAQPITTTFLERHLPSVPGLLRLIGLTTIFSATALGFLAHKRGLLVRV

Homo sapiens = species: Homo sapiens; assay: Selectivity ratio of IC50 for human recombinant MAO A to IC50 for human recombinant LSD1/CoREST
NB-4 = assay: Potency index, ratio of trans-benzyl 1-(4-(2-aminocyclopropyl)phenylamino)-1-oxo-3-phenylpropan-2-ylcarbamate hydrochloride IC50 to compound IC50 for human NB4 cells; assay type: functional
MV4-11 [8] = assay: Potency index, ratio of trans-benzyl 1-(4-(2-aminocyclopropyl)phenylamino)-1-oxo-3-phenylpropan-2-ylcarbamate hydrochloride IC50 to compound IC50 for human MV4-11 cells; assay type: functional
[9] = Cytotoxicity against human NB4 cells assessed as growth inhibition at 100 uM after 72 hrs by CellTiter-Fluor Cell Viability assay; assay type: functional; conditions: NB-4, 72 h

LSD1/CoREST complex (Homo sapiens), sequence (Q9UKL0 whole entry, looked up, other chains not shown): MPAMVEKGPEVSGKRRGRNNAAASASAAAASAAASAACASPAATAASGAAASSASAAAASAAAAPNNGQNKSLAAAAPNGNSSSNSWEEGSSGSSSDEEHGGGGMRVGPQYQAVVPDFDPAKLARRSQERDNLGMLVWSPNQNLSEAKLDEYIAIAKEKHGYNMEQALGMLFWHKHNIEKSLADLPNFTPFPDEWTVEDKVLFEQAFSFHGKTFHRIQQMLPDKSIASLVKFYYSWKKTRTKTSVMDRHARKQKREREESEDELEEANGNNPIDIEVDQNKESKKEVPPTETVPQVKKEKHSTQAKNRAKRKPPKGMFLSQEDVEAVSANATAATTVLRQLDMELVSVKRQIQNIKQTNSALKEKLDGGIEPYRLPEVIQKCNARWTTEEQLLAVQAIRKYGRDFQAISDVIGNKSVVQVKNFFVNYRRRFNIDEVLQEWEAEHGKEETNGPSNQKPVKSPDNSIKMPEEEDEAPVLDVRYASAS

Row | IC50 (LSD1/CoREST complex) [nM] | fold change (FC) [1] | Ratio IC50 [2] | fold change (FC) [3] | IC50 [6] [nM] | IC50 [7] [nM] | Ratio IC50 (Homo sapiens) | SMILES | IC50 [4] [nM] | IC50 (MV4-11 [5]) [nM] | Ratio IC50 (NB-4) | Ratio IC50 (MV4-11 [8]) | inhibition at 100 µM [9] [%]
1 | 65 | < 4 | 2 | < 6 |  |  |  | N[C@@H]1C[C@H]1c1ccc(NC(=O)c2cc3ccccc3[nH]2)cc1 |  |  |  |  | 
2 | 163 | < 4 |  | < 6 |  |  |  | N[C@@H]1C[C@H]1c1ccc(NC(=O)c2ccc[nH]2)cc1 |  |  |  |  | 
3 | 50 | < 4 | 3 | < 6 | 110 | 3900 | < 8 | N[C@@H]1C[C@H]1c1ccc(NC(=O)c2ccn(C(=O)OCc3ccccc3)c2)cc1 | 22300 | 15200 |  |  | 
4 | 40 | < 4 | 3.7 | < 6 | 160 | > 60000 | < 8 | Cl.N[C@@H]1C[C@H]1c1ccc(NC(=O)c2cc3ccccc3n2C(=O)OCc2ccccc2)cc1 (relative stereo) | 6500 | 5900 | 2 | 2 | 
5 | 87 | < 4 | 2 | < 6 |  |  |  | N[C@@H]1C[C@H]1c1ccc(NC(=O)c2cc3ccccc3n2CC(=O)Nc2ccccc2)cc1 (relative stereo) |  |  |  |  | 
6 | 125 | < 4 |  | < 6 |  |  |  | N[C@@H]1C[C@H]1c1ccc(NC(=O)c2cccn2CC(=O)Nc2ccccc2)cc1 (relative stereo) |  |  |  |  | 
7 | 304 |  |  |  |  |  |  | N[C@@H]1C[C@H]1c1ccc(NC(=O)CNC(=O)OCc2ccccc2)cc1 (relative stereo) |  |  |  |  | 
8 | 32 | < 4 | 5 | < 6 | 260 | 75800 | < 8 | N[C@@H]1C[C@H]1c1ccc(NC(=O)c2cccn2C(=O)OCc2ccccc2)cc1 (relative stereo) |  | 6800 |  |  | 56
9 | 308 |  |  |  |  |  |  | N[C@@H]1C[C@H]1c1ccc(NC(=O)c2cc3ccccc3n2CC(=O)NCc2ccccc2)cc1 (relative stereo) |  |  |  |  | 
10 | 853 |  |  |  |  |  |  | N[C@@H]1C[C@H]1c1ccc(NC(=O)c2cc3ccccc3n2CC(=O)c2ccccc2)cc1 (relative stereo) |  |  |  |  | 
11 | 86 | < 4 | 1.7 | < 6 | 460 | > 70000 | < 8 | Cl.N[C@@H]1C[C@H]1c1ccc(NC(=O)c2cn(C(=O)OCc3ccccc3)c3ccccc23)cc1 (relative stereo) | 9300 | 2500 | 2 | 2 | 
12 | 155 | < 4 |  | < 6 |  |  |  | N[C@@H]1C[C@H]1c1ccc(NC(=O)c2cccn2CC(=O)NCc2ccccc2)cc1 (relative stereo) |  |  |  |  | 
13 | 61 |  | 2 |  |  |  |  | N[C@@H]1C[C@H]1c1ccc(NC(=O)C2CCCN2C(=O)OCc2ccccc2)cc1 (relative stereo) |  |  |  |  | 
14 |  |  |  |  |  |  |  | N[C@@H]1C[C@H]1c1ccc(NC(=O)C(Cc2ccccc2)NC(=O)OCc2ccccc2)cc1 (relative stereo) | 17400 | 10200 |  |  | 
15 | 1320 |  |  |  |  |  |  | N[C@@H]1C[C@H]1c1ccc(NC(=O)c2cccn2CC(=O)c2ccccc2)cc1 (relative stereo) |  |  |  |  | 
